{"source": "patent US11365194B2", "about": "“Analgesic drug using PAC1 receptor antagonistic drug” (KAGOSHIMA UNIVERSITY, priority 2017, dated 2022)", "key": {"[1]": {"molecular_target": "T1, mouse VPAC1 receptor-expressing CHO cell (VPAC1/CHO cell) (Mus musculus, UniProt P97751)", "T1 construct": "expressed in transfected cells; host or cells: CHO cells", "T1 sequence (P97751 31-459)": "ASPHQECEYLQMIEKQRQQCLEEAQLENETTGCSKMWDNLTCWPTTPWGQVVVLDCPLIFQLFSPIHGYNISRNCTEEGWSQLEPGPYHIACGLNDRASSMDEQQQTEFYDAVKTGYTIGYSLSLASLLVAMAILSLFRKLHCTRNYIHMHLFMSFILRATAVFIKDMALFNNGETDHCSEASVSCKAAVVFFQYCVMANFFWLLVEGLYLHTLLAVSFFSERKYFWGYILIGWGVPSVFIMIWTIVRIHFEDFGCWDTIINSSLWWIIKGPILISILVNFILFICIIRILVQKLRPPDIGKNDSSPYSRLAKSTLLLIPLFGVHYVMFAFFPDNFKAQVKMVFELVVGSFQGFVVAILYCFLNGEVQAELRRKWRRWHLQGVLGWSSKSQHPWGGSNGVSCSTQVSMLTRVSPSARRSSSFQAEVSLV", "experiment": "CREB phosphorylation by PACAP stimulus, Western blot, VPAC1/CHO cell", "assay_type": "cell-based", "conditions": "compound 10 μM to 10 nM", "experimental": "The effect of each compound on the phosphorylation of CREB (cAMP-responsive element-binding protein) produced by a PACAP stimulus was examined by Western blot analysis using an anti-phosphorylated CREB (pCREB) antibody with a mouse PAC receptor-expressing CHO cell (PAC1/CHO cell) and a mouse VPAC1 receptor-expressing CHO cell (VPAC1/CHO cell).\nSpecifically, treatment with a compound (PA-8, PA-9, compounds 2j, 20 and 3d) at 10 μM to 10 nM or a solvent therefor (VEH: 0.1% DMSO-containing phosphate buffer solution) was performed for 30 minutes, 1 nM PACAP was then added, and protein was recovered within 30 minutes after a PACAP stimulus."}, "[2]": {"tested_on": "pain-like behavior induced by formalin", "experiment": "Pain-like behavior induced by formalin", "assay_type": "in vivo, mouse", "conditions": "0.1 to 10 nmol i.t.", "experimental": "The first phase is direct action of formalin on sensory nerves (to around 10 minutes after formalin administration). In the second phase (from around 10 minutes to 60 minutes after formalin administration), hypersensitization formed in spinal dorsal horn cells during the first phase (a type of plastic phenomenon in the nervous system also called central sensitization) is a main cause, and inflammatory reaction at the site of formalin administration contributes importantly."}, "PAC1 receptor": {"molecular_target": "T2, PAC1 receptor (Homo sapiens, UniProt P41586)", "T2 sequence (P41586 21-468)": "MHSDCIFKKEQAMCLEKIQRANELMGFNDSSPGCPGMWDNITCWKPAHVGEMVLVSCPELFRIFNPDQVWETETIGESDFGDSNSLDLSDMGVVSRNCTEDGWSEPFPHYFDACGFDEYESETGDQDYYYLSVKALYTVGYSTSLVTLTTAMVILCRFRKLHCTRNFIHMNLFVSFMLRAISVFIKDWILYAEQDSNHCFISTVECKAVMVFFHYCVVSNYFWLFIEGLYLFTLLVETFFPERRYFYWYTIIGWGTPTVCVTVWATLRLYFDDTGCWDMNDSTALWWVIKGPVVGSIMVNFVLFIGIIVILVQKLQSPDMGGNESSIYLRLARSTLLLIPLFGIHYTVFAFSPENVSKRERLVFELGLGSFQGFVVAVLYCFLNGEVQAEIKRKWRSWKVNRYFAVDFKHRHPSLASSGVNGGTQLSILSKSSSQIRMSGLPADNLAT", "conditions": "Non Patent Literature 3; cited from earlier work"}}}
{"smiles": "C=CCOc1ccc(C2CC(=O)Nc3nc(N)[nH]c(=O)c32)cc1OC", "note": "(stereo not shown) [PA-8, reference compound]", "values": [{"measurement": "suppression of CREB phosphorylation by PACAP (1 nM)", "setting": "[1]", "value": "did not suppress CREB phosphorylation by PACAP (1 nM)"}, {"measurement": "effect on first phase reaction", "setting": "[2]", "value": "did not affect the first phase reaction"}, {"measurement": "effect on second phase reaction", "setting": "[2]", "value": "suppressed the second phase reaction significantly depending on the concentration"}, {"measurement": "PAC1 receptor antagonistic action", "setting": "PAC1 receptor", "value": "have PAC1 receptor antagonistic action"}]}
